Measurements as given in patent US20090263488A1, “PRESSURISED METERED DOSE INHALERS CONTAINING SOLUTIONS OF BETA-2 AGONISTS” (Chiesi Farmaceutici S.p.A., priority 2002, published 2009).

Test: Stability study of TA 2005 HFA solution formulation in cans
Format: physicochemical
Conditions: HFA formulation able to deliver 4 μg per actuation; cans stored upright at 5° C.; after nine months
Description: A stability study on a formulation able to deliver 4 μg per actuation was initiated storing the cans upright at 5° C.

TA 2005 assay: higher than 95%
Structure (SMILES): COc1ccc(C[C@@H](C)NC[C@H](O)c2ccc(O)c3[nH]c(=O)ccc23)cc1 [TA 2005, 8-hydroxy-5-[(1R)-1-hydroxy-2-[[(1R)-2-(4-methoxyphenyl)-1-methylethyl]amino]ethyl]-2(1H)-quinolinone]
